US8940723B2, “Combination of a pyrroloquinoline compound and a beta-lactam antimicrobial agent, mupirocin or chlorhexidine” (Helperby Therapeutics Limited, priority 2010, dated 2015)
Values after ≈ are worked out from the molar mass of the structure shown. “Also recorded” adds a separate entry of the source. Where two headings read alike, the source gives them in different places.

Legend:
[1] = tested on: clinically latent microorganisms; test: Screening for ability to kill clinically latent microorganisms (method of WO2000028074); type: cell-based
Description: International Patent Application, Publication Number WO2000028074 describes a method of screening compounds to determine their ability to kill clinically latent microorganisms. […] This observation has necessitated the development of novel antimicrobials which may be used to kill clinically latent microorganisms.
By way of example, WO2000028074 describes a suitable method of screening compounds to determine their ability to kill clinically latent microorganisms. A typical method may include the following steps: • (1) growing a bacterial culture to stationary phase; • (2) treating the stationary phase culture with one or more antimicrobial agents at a concentration and or time sufficient to kill growing bacteria, thereby selecting a phenotypically resistant sub-population; • (3) incubating a sample of the phenotypically resistant subpopulation with one or more test compounds or agents; and • (4) assessing any antimicrobial effects against the phenotypically resistant subpopulation.
According to this method, the phenotypically resistant sub-population may be seen as representative of clinically latent bacteria which remain metabolically active in vivo and which can result in relapse or onset of disease.

[2] = tested on: log phase S. aureus (Oxford strain); test: Time-kill curve suspension assay, CFU counts, log phase; type: cell-based, Staphylococcus aureus
Method: For CFU counting, the bacterial suspensions were diluted using sterile deionized water or phosphate-buffered saline (PBS, Sigma Aldrich Ltd, Poole, Dorset, UK). 100 μl of 10-fold serial dilutions of bacteria culture were plated on one third of TSA plates in triplicate and incubated 24 to 48 hours at 37° C. The number of cells presented on the plates was counted using an AcoLyte colony counter (Synbiosis) and results were expressed as Colony Forming Units/ml (CFU/ml). […] (b) mupirocin; and (c) chlorhexidine gluconate against S. aureus, in a concentration range from below to above the MIC, was assessed in a suspension assay by the time-kill curve method. […] The wells were then inoculated with 280 μl of S. aureus (Oxford strain) suspension containing 10^7 CFU/ml of inocula. Drug free controls were also included. The microtitre plates were incubated at 37° C. for 16 to 24 hours, read in a 96-well plate reader, then samples were diluted and 100 μl of each dilution was plated out on TSA plates. After 24 to 48 hours incubation CFU was counted. Each test was performed in triplicate and repeated twice. […] The wells were then inoculated with 280 μl of S. aureus (Oxford strain) suspension containing 10^7 CFU/ml of inocula. Drug free controls were also included. The microtitre plates were incubated at 37° C. for 16 to 24 hours, read in a 96-well plate reader, then samples were diluted and 100 μl of each dilution was plated out on TSA plates. After 24 to 48 hours incubation CFU was counted. […] Each test was performed in triplicate and repeated twice. […] The wells were then inoculated with 280 μl of S. aureus (Oxford strain) suspensions containing 10^7 or 10^8 and CFU/ml of inocula. Drug free controls were also included. The microtitre plates were incubated at 37° C. for 16 to 24 hours, read in a 96-well plate reader, then samples were diluted and 100 μl of each dilution was plated out on TSA plates. After 24 to 48 hours incubation CFU was counted. Each test was performed in triplicate and repeated twice. […] The mean bacterial colony count at varying time points was compared by the two-tailed t-test with unequal variance. P values of ≦0.05 indicated significant difference.

[3] = tested on: Staphylococcus aureus (Oxford); test: Minimum inhibitory concentration (MIC), broth dilution method; type: cell-based; details: S. aureus (Oxford), Iso-Sensitest broth, overnight incubation at 37° C.
Method: Staphylococcus aureus (Oxford); Gram positive; Reference strain.
Iso-Sensitest Broth (Oxoid) was used for evaluation of Minimum inhibitory concentrations (MICs), susceptibility tests for antimicrobials, and efficacy of antimicrobial combinations.
The stock solution of each drug was diluted to required concentrations. 10 μl of drug from each dilution was taken and mixed with 290 μl of culture with 10^6 of bacterial cells on a 96-well plate to make the final required concentrations (μg/ml).
The plates were read at 405 nm using a 96-well plate reader Elx 800 equipped with a 405-nm filter (Bio-Tek) before and after incubation. The MIC values of the drugs were determined by comparison of the optical density reading between prior and post drug treatment.

[4] = tested on: Staphylococcus aureus (Oxford); test: Minimum bactericidal concentration (MBC), subculture on drug-free TSA plates; type: cell-based; details: S. aureus (Oxford), subculture on TSA 24 to 48 hours at 37° C.
Method: Minimum bactericidal concentration (MBC) was determined by subculturing 100 μl of dilutions from the 96-well plate on fresh drug-free TSA agar plates and incubating further for 24 to 48 hours at 37° C.

[5] = Staphylococcus aureus, read-out: MIC
[6] = Staphylococcus aureus, read-out: MBC

| SMILES | activity against clinically latent microorganisms [1] | MIC [3, 5] [µg/mL] | MBC [4, 6] [µg/mL] | further results |
| --- | --- | --- | --- | --- |
| CC[C@H]1OC(=O)[C@H](C)[C@@H](O[C@H]2C[C@@](C)(OC)[C@@H](O)[C@H](C)O2)[C@H](C)[C@@H](O[C@@H]2O[C@H](C)C[C@H](N(C)C)[C@H]2O)[C@](C)(O)C[C@@H](C)CN(C)[C@H](C)[C@@H](O)[C@]1(C)O [azithromycin] | little or no activity |  |  |  |
| Cc1nc2ccc(Oc3ccccc3)cc2c2c1CCN2CCc1ccccc1 [4-methyl-8-phenoxy-1-(2-phenylethyl)-2,3-dihydro-1H-pyrrolo[3,2-c]quinoline] |  | 8 | 16 (≈ 42.1 µM) | activity against log phase S. aureus ([2]; agent alone at 4 μg/ml): no activities; also recorded: no activity; kind of activity against log phase S. aureus ([2]; pyrroloquinoline alone at 10 and 8 μg/ml): bactericidal activity; CFU/ml reduced from 10^7 to ([2]; pyrroloquinoline alone at 10 and 8 μg/ml, at 72 hours): zero |
| C/C(=C\C(=O)OCCCCCCCCC(=O)O)C[C@@H]1OC[C@H](C[C@@H]2O[C@H]2[C@@H](C)[C@H](C)O)[C@@H](O)[C@H]1O [Mupirocin] | little or no activity | 0.125 | 256 (≈ 511 µM) | kind of activity against log phase S. aureus ([2]; mupirocin alone at 40, 20 and 10 μg/ml): bacteriostatic |
| N=C(NCCCCCCNC(=N)NC(=N)Nc1ccc(Cl)cc1)NC(=N)Nc1ccc(Cl)cc1.O=C(O)[C@H](O)[C@@H](O)[C@H](O)[C@H](O)CO.O=C(O)[C@H](O)[C@@H](O)[C@H](O)[C@H](O)CO [Chlorhexidine gluconate] |  |  |  | MIC [3]: 0.5 µg/mL; MBC [4]: 2 µg/mL |
| CC(=O)NC[C@H]1CN(c2ccc(N3CCOCC3)c(F)c2)C(=O)O1 [linezolid] | little or no activity |  |  |  |
